The data set concerns the target SNHG14. To be noted: ASO.

After the bases stand the sugars from the 5' end (letter, count) and the backbone: PS all phosphorothioate, else s phosphorothioate and o phosphodiester by linkage. Methylation of C is not given here. l = locked nucleic acid (LNA); d = 2'-deoxy (DNA)

With “ACTTCACACCTATTATAT (sugars l3 d12 l3, PS)”, the target mRNA inhibition (Human Neuronal Cell, 0.2 µM) was 21% and the target mRNA inhibition (Human Neuronal Cell, 1 µM) is 45%.

As for “AAAATCTCAACTACCATTTT (sugars lddllldddddddldldlll, PS)”, under “Human Neuronal Cell, 7.5 µM”, the target mRNA inhibition stood at 36%.

As to CTATTCTCAGTATTAT (sugars l3 d10 l3, PS), the target mRNA inhibition reads like this: (Human Neuronal Cell, 0.2 µM) 19%; (Human Neuronal Cell, 1 µM) 13%.

In the case of “GCACATTCTTTCTATACC (sugars l1 d4 l1 d10 l2, PS)”, for the setting “Human Neuronal Cell, 7.5 µM”, the target mRNA inhibition worked out at 45%.

As to “AAATCTCAACTACCATTTTT (sugars llldldddddddddlldlll, PS)”, the target mRNA inhibition (Human Neuronal Cell, 7.5 µM) was -2%.

For the sequence TTTCCATCTACTATTA (sugars l4 d10 l2, PS), the target mRNA inhibition by setting is: (Human Neuronal Cell, 0.2 µM) 60%; (Human Neuronal Cell, 1 µM) 67%.

On to “TATTGATTCAATTCCCT (sugars lddldddddddddldll, PS)”, for which the target mRNA inhibition (Human Neuronal Cell, 7.5 µM) amounted to 51%.

CTGTACACAATCAACA (sugars l4 d10 l2, PS): the target mRNA inhibition (Human Neuronal Cell, 0.2 µM) came to 54% and the target mRNA inhibition (Human Neuronal Cell, 1 µM) is 63%.

Take “CTCATACTTGCTTTAAT (sugars l2 d13 l2, PS)”: the target mRNA inhibition reads like this: (Human Neuronal Cell, 0.2 µM) -18%; (Human Neuronal Cell, 1 µM) 13%; (Human Neuronal Cell, 5 µM) 17%; (Mouse Primary Neuronal Cell, 0.005 µM) 84.1%.

As to “TCTGTATACACCATCCC (sugars l2 d1 l1 d11 l2, PS)”, the target mRNA inhibition (Human Neuronal Cell, 7.5 µM) came to 56%.

Regarding “AGATCATTCTCAACAATT (sugars l3 d1 l1 d9 l4, PS)”, the target mRNA inhibition (Human Neuronal Cell, 7.5 µM) was 43%.

Regarding “CTCTCCTCAAGATCAAC (sugars l3 d11 l3, PS)”, the target mRNA inhibition is, setting by setting: (Human Neuronal Cell, 0.2 µM) 23%; (Human Neuronal Cell, 1 µM) 42%.

Consider ATTCTTACCGTCTTTA (sugars l4 d10 l2, PS), for which the target mRNA inhibition is 49% (Human Neuronal Cell, 0.2 µM) and 60% (Human Neuronal Cell, 1 µM).

For the sequence “AGCAACATTATTAACCAC (sugars l3 d9 l3 d1 l2, PS)”, the target mRNA inhibition (Human Neuronal Cell, 7.5 µM) came out at 27%.

“TTCTGTATACACCATCCC (sugars ldddlddddddddlddll, PS)”: the target mRNA inhibition (Human Neuronal Cell, 7.5 µM) was 54%.

As for “GCACATTCTTTCTATAC (sugars l2 d1 l1 d11 l2, PS)”, the target mRNA inhibition (Human Neuronal Cell, 7.5 µM) is 61%.

Take TCCAGCATATTATATA (sugars l4 d10 l2, PS): the target mRNA inhibition is 24% (Human Neuronal Cell, 0.2 µM) and 10% (Human Neuronal Cell, 1 µM).

Turning to AGCTCTAAACCTTCAA (sugars l3 d10 l3, PS), the target mRNA inhibition reads like this: (Human Neuronal Cell, 0.2 µM) 40%; (Human Neuronal Cell, 1 µM) 12%.

Turning to “AAGATCATTCTCAACAAT (sugars lllldldddddddlldll, PS)”, for the setting “Human Neuronal Cell, 7.5 µM”, the target mRNA inhibition was determined as 19%.

Consider “AAAATCTCAACTACCATTT (sugars llddlldddddddlldlll, PS)”, for which the target mRNA inhibition (Human Neuronal Cell, 7.5 µM) worked out at 52%.

“TATTGATTCAATTCCCT (sugars ldddlddddddllldll, PS)”: the target mRNA inhibition (Human Neuronal Cell, 7.5 µM) is 10%.

Consider “TGAAAATCTCAACTACCAT (sugars lddddlddddddldlldll, PS)”, for which the target mRNA inhibition (Human Neuronal Cell, 7.5 µM) worked out at 42%.

Turning to “GTTTCCATCTACTATTAA (sugars l1 d11 l2 d1 l3, PS)”, the target mRNA inhibition (Human Neuronal Cell, 7.5 µM) was determined as 52%.

With CCATACAGTATATACA (sugars l4 d10 l2, PS), the target mRNA inhibition runs as follows: (Human Neuronal Cell, 0.2 µM) 31%; (Human Neuronal Cell, 1 µM) 56%.

“AATTTTTTTCTTACTATCTT (sugars ldlllldddddddlddddll, PS)”: the target mRNA inhibition (Human Neuronal Cell, 7.5 µM) was 55%.

For “AAAATTATTTATACACCATC (sugars lllllllddddddldlddll, PS)”, the target mRNA inhibition (Human Neuronal Cell, 7.5 µM) worked out at 49%.

Regarding “CTTAGACTTCACCTTTC (sugars l2 d11 l4, PS)”, the target mRNA inhibition (Human Neuronal Cell, 0.2 µM) was found to be 49% and the target mRNA inhibition (Human Neuronal Cell, 1 µM) was 41%.

Consider “AAAATTATTTATACACCATC (sugars l1 d2 l2 d9 l6, PS)”, for which the target mRNA inhibition (Human Neuronal Cell, 7.5 µM) worked out at 56%.

In the case of “GCACATTCTTTCTATACC (sugars l1 d12 l1 d2 l2, PS)”, where the note is “Human Neuronal Cell, 7.5 µM”, the target mRNA inhibition came to 47%.

With “AGCAACATTATTAACCACC (sugars ldddddddddddldlddll, PS)”, the target mRNA inhibition (Human Neuronal Cell, 7.5 µM) came out at 26%.

For the sequence “AGTTCTACTATACTTTCC (sugars l2 d14 l2, PS)”, the target mRNA inhibition (Human Neuronal Cell, 7.5 µM) was determined as 14%.

On to CCTATGTTAATACTTT (sugars l4 d10 l2, PS), for which the target mRNA inhibition by setting is: (Human Neuronal Cell, 0.2 µM) 25%; (Human Neuronal Cell, 1 µM) 29%.

As for “TTATAGCCATTCTATCT (sugars l3 d9 l1 d1 l3, PS)”, the target mRNA inhibition (Human Neuronal Cell, 7.5 µM) was found to be 54%.

In the case of “CCATTTATTTCCATTTATT (sugars lddldddddddddlldlll, PS)”, the target mRNA inhibition (Human Neuronal Cell, 7.5 µM) turned out to be 59%.

Consider “TTTACATTCCCATCATC (sugars l2 d11 l4, PS)”, for which the target mRNA inhibition (Human Neuronal Cell, 0.2 µM) amounted to 57% and the target mRNA inhibition (Human Neuronal Cell, 1 µM) was 66%.

As to “AAAATTATTTATACACCATC (sugars ldlllllddddddlldddll, PS)”, the target mRNA inhibition (Human Neuronal Cell, 7.5 µM) came out at 61%.

For the sequence TTACTCTTAGCAACCT (sugars l4 d10 l2, PS), the target mRNA inhibition reads like this: (Human Neuronal Cell, 0.2 µM) 58%; (Human Neuronal Cell, 1 µM) 54%.

As to “ATTGATTCAATTCCCTT (sugars ldldddddddddldlll, PS)”, the target mRNA inhibition (Human Neuronal Cell, 7.5 µM) stood at 54%.

The values are drawn from the OligoGym collection.
